Several values for one entry are separate records, joined by “and”; a condition that tells them apart may be missing. Equal values may be shown once. Read-outs that look alike come from different tables or passages of the source.
Experiments:
Plasma stability, human = assay type: in vitro ADME; conditions: Plasma:1x PBS pH 7.4 1:1, 3 hrs
[1] = Hepatic microsome stability, human
APJ = target: T1, APJ (Homo sapiens, UniProt P35414); assay: APJ receptor internalization assay; assay type: cell-based; conditions: fixed apelin-13 6.23 nM
T1 sequence (P35414 1-380): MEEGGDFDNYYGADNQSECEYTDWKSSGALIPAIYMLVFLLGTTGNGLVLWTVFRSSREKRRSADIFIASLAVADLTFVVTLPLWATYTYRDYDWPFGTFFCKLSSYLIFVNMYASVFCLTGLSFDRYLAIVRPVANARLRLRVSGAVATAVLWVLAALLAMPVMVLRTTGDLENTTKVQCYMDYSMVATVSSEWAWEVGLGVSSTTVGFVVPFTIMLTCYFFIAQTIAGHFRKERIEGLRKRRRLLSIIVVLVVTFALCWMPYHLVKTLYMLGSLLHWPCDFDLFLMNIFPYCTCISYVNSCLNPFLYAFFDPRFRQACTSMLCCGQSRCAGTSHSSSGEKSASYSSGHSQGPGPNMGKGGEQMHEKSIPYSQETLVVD
Protocol: This graph depicts the mean percent inhibition (±SEM) of apelin-13 mediated receptor internalization. Representative of an experiment that was repeated three times with each data point performed in triplicate. Curve fit analysis was performed using nonlinear regression with a 4-point logistic fit (GraphPad Prism5).

PAMPA permeability = assay type: in vitro ADME; conditions: for Papp: PAMPA, read-out: PAMPA Pe
Protocol: The PAMPA (Parallel Artificial Membrane Permeability Assay) assay is used as an in vitro model of passive, transcellular permeability. An artificial membrane immobilized on a filter is placed between a donor and acceptor compartment. At the start of the test, drug is introduced in the donor compartment. Following the permeation period, the concentration of drug in the donor and acceptor compartments is measured using UV spectroscopy.

[2] = system: benzodiazepinone receptors; assay: PDSP GPCR binding assay panel
[3] = Stability in 1x PBS pH 7.4 (plasma stability assay); assay type: physicochemical; conditions: 1x PBS pH 7.4, 3 hrs
human hepatocytes = assay: Hepatic toxicity / cytotoxicity; conditions: Table 1
[4] = Hepatic toxicity / cytotoxicity; conditions: human, hepatocytes
kappa opioid receptor = target: T2, kappa opioid receptor (Homo sapiens, UniProt P41145); assay: PDSP GPCR binding assay panel
T2 construct: Psychoactive Drug Screening Program (PDSP), University of North Carolina

[5] = Hepatic microsome stability, mouse

T2 sequence (P41145 whole entry): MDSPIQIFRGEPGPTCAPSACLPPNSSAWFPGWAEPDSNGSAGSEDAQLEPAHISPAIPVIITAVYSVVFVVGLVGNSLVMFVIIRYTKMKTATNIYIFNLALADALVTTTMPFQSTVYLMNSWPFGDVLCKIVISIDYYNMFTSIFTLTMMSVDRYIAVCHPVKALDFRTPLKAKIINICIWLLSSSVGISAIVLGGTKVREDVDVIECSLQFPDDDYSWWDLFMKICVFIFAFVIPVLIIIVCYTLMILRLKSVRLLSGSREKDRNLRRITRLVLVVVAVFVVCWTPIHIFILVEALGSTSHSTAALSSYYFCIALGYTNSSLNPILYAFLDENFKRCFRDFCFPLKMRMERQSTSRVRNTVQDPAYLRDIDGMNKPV

O=C(Oc1coc(CSc2ncccn2)cc1=O)c1ccc([N+](=O)[O-])cc1 [Compound 6, 4-OXO-6-((PYRIMIDIN-2-YLTHIO)METHYL)-4H-PYRAN-3-YL-4-NITROBENZOATE]
Plasma Stability (% Remaining @3 hrs) (Plasma stability, human): 0.26% | Hepatic Microsome Stability Human ([1]; Human): 4.19 | % remaining at 60 min in human liver homogenates ([1]; human, 60 min): 4.2% | antagonism of apelin-13 induced APJ receptor internalization (APJ): antagonized the ability of apelin-13 to induce APJ receptor internalization | Plasma Stability (% Remaining @3 hrs) (Plasma stability, mouse; Mouse, Plasma:1x PBS pH 7.4 1:1, 3 hrs): 0.88% | Plasma Stability (Plasma stability, mouse; Table 1, species and matrix not given): 42.2% | PAMPA Pe (×10^−6 cm/s) (PAMPA permeability; Donor pH 7.4, Acceptor pH 7.4): 271 ×10^−6 cm/s | Papp (PAMPA permeability; Donor pH 5.0, Acceptor pH 7.4): 195 ×10⁻⁶ cm/s | Papp (PAMPA permeability; Donor pH 6.2, Acceptor pH 7.4): 240 ×10⁻⁶ cm/s | Permeability (PAMPA) pH 7.4 (PAMPA permeability; Table 1, pH 7.4): 271.0 × 10^−6 cm/s | binding activity at benzodiazepinone receptors [2]: significant activity | Plasma Stability (% Remaining @3 hrs), 1x PBS pH 7.4 ([3]; first value (Human position)): 46.97% | Plasma Stability (% Remaining @3 hrs), 1x PBS pH 7.4 ([3]; second value (Mouse position)): 42.18% | Cytotoxicity (human hepatocytes): >50 µM | CC50 [4]: > 50 µM | binding activity at kappa opioid receptor (kappa opioid receptor): significant activity | solubility (Aqueous solubility; 1x PBS, pH 7.4, aqueous buffer): 3.6 µg/mL and 9.3 µM | Aqueous Solubility pH 7.4 (Aqueous solubility; Table 1, pH 7.4): 25.5 μg/mL | solubility (Aqueous solubility; aqueous media, pH 5, aqueous buffer): 3 µg/mL and 7.8 µM | solubility (Aqueous solubility; aqueous media, pH 6.2, aqueous buffer): 3.6 µg/mL and 9.3 µM | solubility (Aqueous solubility; aqueous media, pH 7.4, aqueous buffer): 9.8 µg/mL and 25 µM | Hepatic Microsome Stability ([5]; Table 1, species not given, equals the mouse value): 4.9% | Hepatic Microsome Stability Mouse ([5]; mouse): 4.89 | % remaining at 60 min in mouse liver homogenates ([5]; mouse, 60 min): 4.9% | Plasma Protein Binding (mouse) (Plasma protein binding; mouse): 99.1% | detection in the plasma protein binding assay (Plasma protein binding; species not given, 18 h incubation): undetectable
